Laboratory results as given in ChEMBL document CHEMBL2157973, “An efficient synthesis of 3-OBn-6β,14-epoxy-bridged opiates from naltrexone and identification of a related dual MOR inverse agonist/KOR agonist” (Bioorg Med Chem Lett, 2012).

Columns and labels:
Assay type in all cases: functional, cell-based
Mu-type opioid receptor [1] = target: T1, Mu-type opioid receptor (Homo sapiens, UniProt P35372); experiment: Inverse agonist activity at human recombinant mu opioid receptor expressed in CHO cells after 3 hrs by [35S]GTPgammaS binding assay relative to KC-2-009
T1 sequence (P35372 whole entry): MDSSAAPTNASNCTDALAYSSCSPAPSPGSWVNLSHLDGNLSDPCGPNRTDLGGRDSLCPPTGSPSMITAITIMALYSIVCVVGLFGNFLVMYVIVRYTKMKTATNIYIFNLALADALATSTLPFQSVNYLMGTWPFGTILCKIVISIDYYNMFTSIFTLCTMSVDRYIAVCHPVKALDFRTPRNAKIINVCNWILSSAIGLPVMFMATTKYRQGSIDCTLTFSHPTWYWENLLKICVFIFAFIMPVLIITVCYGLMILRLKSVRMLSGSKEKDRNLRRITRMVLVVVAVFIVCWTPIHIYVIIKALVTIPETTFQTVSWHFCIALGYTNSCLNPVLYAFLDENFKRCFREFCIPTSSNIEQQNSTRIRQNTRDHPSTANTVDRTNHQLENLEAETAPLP

Mu-type opioid receptor [2] = target: T1, Mu-type opioid receptor; experiment: Inverse agonist activity at human recombinant mu opioid receptor expressed in CHO cells after 3 hrs by [35S]GTPgammaS binding assay
[3] = target: Kappa-type opioid receptor (Homo sapiens) (UniProt P41145); experiment: Agonist activity at human kappa opioid receptor expressed in CHO cells after 3 hrs by [35S]GTPgammaS binding assay
Kappa-type opioid receptor (Homo sapiens), sequence (P41145 whole entry): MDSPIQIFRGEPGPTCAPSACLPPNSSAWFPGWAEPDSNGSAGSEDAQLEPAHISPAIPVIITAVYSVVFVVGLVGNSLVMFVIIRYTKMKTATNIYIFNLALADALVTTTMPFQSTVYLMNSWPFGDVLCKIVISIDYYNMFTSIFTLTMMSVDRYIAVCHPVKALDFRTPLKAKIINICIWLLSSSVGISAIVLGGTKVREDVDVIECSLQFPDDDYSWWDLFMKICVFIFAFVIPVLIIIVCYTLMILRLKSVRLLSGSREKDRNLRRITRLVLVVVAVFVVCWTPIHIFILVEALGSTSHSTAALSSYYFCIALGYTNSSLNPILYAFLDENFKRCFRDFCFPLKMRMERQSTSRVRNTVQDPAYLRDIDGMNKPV

[4] = target: Kappa-type opioid receptor (Homo sapiens) (UniProt P41145); experiment: Agonist activity at human kappa opioid receptor expressed in CHO cells after 3 hrs by [35S]GTPgammaS binding assay relative to control

Compound	Emax (Mu-type opioid receptor [1])	EC50 (Mu-type opioid receptor [2])	ED50 [3]	Emax [4]
Oc1ccc2c3c1O[C@H]1[C@H](O)CC[C@@]4(O)[C@@H](C2)N(CC2CC2)CC[C@]314	89%	–	–	–
CS(=O)(=O)O[C@@H]1CC[C@@]2(O)[C@H]3Cc4ccc(O)c5c4[C@@]2(CCN3CC2CC2)[C@H]1O5	60.5%	2.6 nM	26 nM	48%
